Target: T1, CYP3A1 (Rattus norvegicus, UniProt P04800)
T1 construct: recombinant rat CYP3A1 in Supersomes (microsomes of baculovirus-transfected insect cells); with NADPH:CYP oxidoreductase (POR) and/or cytochrome b5
T1 sequence (P04800 1-504): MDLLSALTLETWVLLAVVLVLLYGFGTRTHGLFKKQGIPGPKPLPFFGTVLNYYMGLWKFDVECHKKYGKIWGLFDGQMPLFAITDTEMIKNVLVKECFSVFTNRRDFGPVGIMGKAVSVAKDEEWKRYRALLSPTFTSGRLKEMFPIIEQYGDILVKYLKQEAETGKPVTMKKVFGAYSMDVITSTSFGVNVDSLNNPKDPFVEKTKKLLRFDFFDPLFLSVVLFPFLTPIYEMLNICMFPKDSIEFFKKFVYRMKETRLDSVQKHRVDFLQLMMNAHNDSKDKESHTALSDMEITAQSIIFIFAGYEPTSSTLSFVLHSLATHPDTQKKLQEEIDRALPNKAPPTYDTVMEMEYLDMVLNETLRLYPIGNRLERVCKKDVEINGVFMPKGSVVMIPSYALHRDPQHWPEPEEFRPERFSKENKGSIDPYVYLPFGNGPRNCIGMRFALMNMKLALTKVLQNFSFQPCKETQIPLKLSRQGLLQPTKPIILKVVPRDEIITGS
Test: HPLC of AAIa formed from AAII by recombinant CYP in insect-cell microsomes
Format: cell-based

SMILES: O=C(O)c1cc2c(c3c1c([N+](=O)[O-])cc1ccccc13)OCO2 [AAII, 6-nitrophenanthro[3,4-d]-1,3-dioxole-5-carboxylic acid]
- HPLC of AAIa formed from AAII by recombinant CYP in insect-cell microsomes: only rat CYP of the 3A subfamily, CYP3A1, but not CYP3A2, was capable of oxidizing AAII to AAIa
